Values quoted from earlier work as cited in patent US20240317846A1 (priority 2021, published 2024).
Read-outs that look alike come from different tables or passages of the source. Marks after values point to notes of the source that are not given here.

Legend:
COVID-19 [1] = conditions: cited from earlier work
COVID-19 [2] = conditions: cited from earlier work; for Mean days to discharge: published cohorts; for Median days to discharge: published lopinavir-ritonavir cohort
COVID-19 [3] = conditions: RECOVERY trial; cited from earlier work

## Otilimab: monoclonal antibody targeting circulating GM-CSF
COVID-19 [1]; pre-planned analysis, subjects aged at least 70 years, standard of care 45.9%
  Subjects alive and free of respiratory failure at 28 days: 65.1%
COVID-19 [1]; whole population
  Primary endpoint (proportion alive and free of respiratory failure 28 days): not meet its primary endpoint

## Tocilizumab: anti-IL6 receptor monoclonal antibody
COVID-19 [2]; 2 patients not discharged
  Range of days to discharge: (10-19)* days
COVID-19 [2]
  Mean days to discharge: 13.5 days
COVID-19 [3]
  Increased likelihood of survival: 14%
  Increased likelihood of survival without IMV: 18%
  Survival, Hazard Ratio: 1.14
  Ventilator-Free Survival, Hazard Ratio: 1.18

## lopinavir and ritonavir [Lopinavir/Ritonavir]
COVID-19 [2]
  Mean days to discharge: 13 days
  Median days to discharge: 13** days
COVID-19 [2]; listed as Lopinavir-Ritonavir
  Median days to discharge: 13 days
